Counter-ions that a name gives are not always drawn.
Experiments:
[1] = system: Gram-negative ESKAPE pathogens and E. coli; assay: MIC, micro-dilution broth method (text summary); assay type: cell-based
[2] = system: colistin-resistant E. coli; assay: Sepsis survival and pneumonia bacterial burden models; assay type: in vivo; conditions: CD-1 mice, E. coli AR-0493, 50 mg/kg IV
Method: (§1) FIG. 4. In vivo efficacy of Debio-1452-NH3. A. Kaplan-Meier survival curve of mouse efficacy model of A. baumannii sepsis. Seven-week-old CD-1 mice were infected with A. baumannii W41979 (2.6×10^8 CFU/mouse, 15 mice per group) via IV injection. Mice were treated once-a-day for 4 days with FabI inhibitor (IV, 50 mg/kg). Log-rank test, p<0.0001. B. Acute pneumonia infections initiated in CD-1 mice with A. baumannii W41979 (2.1×10^8 CFU/mouse, intranasal) were treated with vehicle (8 mice) or FabI inhibitor (10 mice per group) 8, 30, and 48 h post-infection (IV, 50 mg/kg), and the bacterial burden was evaluated 72 h post-infection. C. […] Acute pneumonia infections initiated in CD-1 mice with K. pneumoniae BAA-1705 (4.4×10^8 CFU/mouse, intranasal) were treated with vehicle or FabI inhibitor (8 mice per group) 6, 23, and 45 h post-infection (IV, 50 mg/kg), and the bacterial burden was evaluated 72 h post-infection. […] Acute pneumonia infections initiated in CD-1 mice with E. coli AR-0493 (1.73×10^8 CFU/mouse, intranasal) were treated with vehicle or FabI inhibitor (8 mice per group) 6 and 28 h post-infection (IV, 50 mg/kg), and the bacterial burden was evaluated 48 h post-infection. […]
(§2) Acute pneumonia bacterial burden model. […] At 48 h post-infection (E. coli) or 72 h post-infection (A. baumannii and K. pneumoniae), CFU were determined in the lungs through serial dilutions. […]

[3] = system: carbepenem-resistant K. pneumoniae; assay: as above; assay type: in vivo; conditions: CD-1 mice, K. pneumoniae BAA-1705, 50 mg/kg IV
Method: as §1, §2

A. baumannii W41979 [4] = assay: Acute pneumonia bacterial burden model; assay type: in vivo; conditions: CD-1 mice, 50 mg/kg IV
Method: as §1, §2

A. baumannii W41979 [5] = assay: Bacterial sepsis survival model; assay type: in vivo; conditions: CD-1 mice, 50 mg/kg IV once-per-day, four doses
Method: as §1, with “C. Kaplan-Meier survival curve of in vivo efficacy model of K. pneumonia sepsis. Seven-week-old CD-1 mice were infected with K. pneumoniae BAA-1705 (1.08×10^8 CFU/mouse, 15 mice per group) via IV injection.” for “C.”

[6] = system: E. cloacae, K. pneumoniae, and A. baumannii; assay: MIC, micro-dilution broth method (text summary); assay type: cell-based; conditions: strains of E. cloacae

## Cc1c(CN(C)C(=O)/C=C/c2cnc3c(c2)CCC(=O)N3)oc2ccccc12 [Debio-1452, (E)-N-methyl-N-((3-methylbenzofuran-2-yl)methyl)-3-(7-oxo-5,6,7,8-tetrahydro-1,8-naphthyridin-3-yl)acrylamide, reference compound]
[1]; Escherichia coli, Gram-negative ESKAPE pathogens and E. coli
  MIC: > 32 µg/mL
[1]; Gram-negatives with intact outer membranes
  activity (in words): no activity

## Cc1c(CN(C)C(=O)/C=C/c2cnc3c(c2)CC(N)C(=O)N3)oc2ccccc12 (stereo not shown) [Debio-1452-NH3, (E)-3-(6-amino-7-oxo-5,6,7,8-tetrahydro-1,8-naphthyridin-3-yl)-N-methyl-N-((3-methylbenzofuran-2-yl)methyl)acrylamide hydrochloride]
[2]
  efficacy in infected mice (in words): efficacy
[3]
  efficacy in infected mice (in words): efficacy
A. baumannii W41979 [4]
  bacterial burden (in words): reduced bacterial burden
A. baumannii W41979 [5]
  survival (in words): significantly increased survival
[6]
  MIC: 4 to 8 µg/mL

Source: patent publication US12180198B2, “Ribocil C antibiotics effective for Gram-negative pathogens” (THE BOARD OF TRUSTEES OF THE UNIVERSITY OF ILLINOIS, priority 2018, dated 2024)
